Source: ChEMBL document CHEMBL1933028, “Discovery of cyclic amine-substituted benzoic acids as PPARα agonists” (Bioorg Med Chem Lett, 2012)

Legend:
Type in all cases: cell-based
[1] = molecular target: T1, Peroxisome proliferator-activated receptor alpha (Homo sapiens, UniProt Q07869); assay: Transactivation of human PPARalpha expressed in CHO-K1 cells
T1 sequence (Q07869 whole entry): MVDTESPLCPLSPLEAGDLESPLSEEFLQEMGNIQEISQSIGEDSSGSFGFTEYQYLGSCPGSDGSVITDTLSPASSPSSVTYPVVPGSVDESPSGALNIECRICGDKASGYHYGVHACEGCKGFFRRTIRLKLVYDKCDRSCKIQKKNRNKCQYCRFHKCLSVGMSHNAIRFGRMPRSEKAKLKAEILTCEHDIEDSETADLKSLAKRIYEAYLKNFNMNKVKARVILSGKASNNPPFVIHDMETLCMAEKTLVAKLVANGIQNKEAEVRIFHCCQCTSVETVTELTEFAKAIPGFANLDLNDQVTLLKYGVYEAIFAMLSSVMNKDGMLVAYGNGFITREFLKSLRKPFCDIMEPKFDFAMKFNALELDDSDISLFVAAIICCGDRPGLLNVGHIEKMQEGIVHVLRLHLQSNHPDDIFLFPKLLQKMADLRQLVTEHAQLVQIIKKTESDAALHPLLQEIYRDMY

[2] = molecular target: T2, Peroxisome proliferator-activated receptor gamma (Homo sapiens, UniProt P37231); assay: Transactivation of human PPARgamma expressed in CHO-K1 cells
T2 sequence (P37231 whole entry): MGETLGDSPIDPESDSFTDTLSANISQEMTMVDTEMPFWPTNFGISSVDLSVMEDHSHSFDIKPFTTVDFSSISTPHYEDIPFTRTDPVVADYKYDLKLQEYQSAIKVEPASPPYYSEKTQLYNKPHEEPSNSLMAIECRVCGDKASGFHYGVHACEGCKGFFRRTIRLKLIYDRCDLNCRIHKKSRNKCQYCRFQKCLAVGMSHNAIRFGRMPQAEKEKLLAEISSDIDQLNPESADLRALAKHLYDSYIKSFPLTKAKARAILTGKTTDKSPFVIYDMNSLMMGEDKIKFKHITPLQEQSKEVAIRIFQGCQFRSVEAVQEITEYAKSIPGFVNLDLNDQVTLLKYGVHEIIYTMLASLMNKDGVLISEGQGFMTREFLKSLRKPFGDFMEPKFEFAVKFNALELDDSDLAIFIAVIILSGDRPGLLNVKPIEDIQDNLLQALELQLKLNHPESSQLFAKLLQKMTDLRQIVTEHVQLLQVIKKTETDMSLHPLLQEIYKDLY

[3] = molecular target: T3, Peroxisome proliferator-activated receptor delta (Homo sapiens, UniProt Q03181); assay: Transactivation of human PPARdelta expressed in CHO-K1 cells
T3 sequence (Q03181 whole entry): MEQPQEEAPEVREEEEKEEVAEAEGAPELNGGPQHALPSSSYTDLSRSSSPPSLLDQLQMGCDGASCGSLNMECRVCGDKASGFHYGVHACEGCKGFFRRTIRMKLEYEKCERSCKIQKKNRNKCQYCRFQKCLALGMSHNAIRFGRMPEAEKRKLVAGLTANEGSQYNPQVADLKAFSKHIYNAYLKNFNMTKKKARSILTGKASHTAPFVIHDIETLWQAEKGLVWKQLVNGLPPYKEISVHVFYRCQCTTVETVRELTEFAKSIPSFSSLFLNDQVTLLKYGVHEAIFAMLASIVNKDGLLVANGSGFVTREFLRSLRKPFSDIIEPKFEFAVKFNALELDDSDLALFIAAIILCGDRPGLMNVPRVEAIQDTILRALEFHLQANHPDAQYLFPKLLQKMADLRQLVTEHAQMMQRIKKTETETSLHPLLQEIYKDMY

[4] = molecular target: T3, Peroxisome proliferator-activated receptor delta; assay: Transactivation of human PPARdelta expressed in CHO-K1 cells at 30 uM

| Compound | EC50 [1] [nM] | EC50 [2] [nM] | EC50 [3] [nM] | EC50 [4] |
| --- | --- | --- | --- | --- |
| Cc1nc(-c2ccc(Cl)cc2)sc1COC1CCCN(c2cccc(C(=O)O)c2)C1 (centres undefined) | 250 | > 9700 | > 6300 | – |
| Cc1nc(-c2cccc(Cl)c2)sc1C(=O)N[C@H]1CCCN(c2cccc(C(=O)O)c2)C1 | 26 | > 5200 | 2400 | – |
| Cc1nc(-c2ccc(Cl)cc2)sc1C(=O)NCC1CCCN(c2cccc(C(=O)O)c2)C1 (centres undefined) | 760 | > 4900 | – | Not Active |
| Cc1nc(-c2ccc(Cl)cc2)sc1CC(=O)NC1CCCN(c2cccc(C(=O)O)c2)C1 (centres undefined) | > 12000 | – | – | – |
| Cc1nc(-c2ccc(Cl)cc2)sc1C(=O)NC1CCCN(c2cccc(C(=O)O)c2)C1 (centres undefined) | 5 | > 10000 | > 4200 | – |
| Cc1nc(-c2ccc(Cl)cc2)sc1C(=O)N(C)C1CCCN(c2cccc(C(=O)O)c2)C1 (centres undefined) | 3400 | – | – | – |
| Cc1nc(-c2ccc(Cl)cc2)sc1C(=O)N[C@@H]1CCCN(c2cccc(C(=O)O)c2)C1 | 1200 | > 10000 | – | Not Active |
| Cc1nc(-c2ccc(Cl)cc2)sc1C(=O)NCC1CCCCN(c2cccc(C(=O)O)c2)C1 (centres undefined) | 700 | – | – | – |
| Cc1nc(-c2ccc(Cl)cc2)sc1C(=O)NC1CCCN(c2ccc(C(=O)O)cc2)C1 (centres undefined) | 1500 | – | – | – |
| Cc1nc(-c2ccc([N+](=O)[O-])cc2)sc1C(=O)N[C@H]1CCCN(c2cccc(C(=O)O)c2)C1 | 37 | > 13000 | > 11000 | – |
| Cc1nc(-c2ccc(Cl)cc2)sc1/C=C/C1CCCN(c2cccc(C(=O)O)c2)C1 (centres undefined) | 120 | > 9800 | > 8100 | – |
| Cc1nc(-c2ccc(F)cc2)sc1C(=O)N[C@H]1CCCN(c2cccc(C(=O)O)c2)C1 | 21 | > 9800 | 8800 | – |
| Cc1nc(-c2ccc(Cl)cc2)oc1C(=O)N[C@H]1CCCN(c2cccc(C(=O)O)c2)C1 | 1500 | > 12000 | > 13000 | – |
| Cc1nc(-c2ccc(Cl)cc2)sc1CNC1CCCN(c2cccc(C(=O)O)c2)C1 (centres undefined) | 2400 | > 13000 | > 13000 | – |
| Cc1nc(-c2ccc(Cl)cc2)sc1C(=O)NC1CCCN(c2ccccc2C(=O)O)C1 (centres undefined) | > 6000 | – | – | – |
| Cc1nc(-c2ccc(Cl)cc2)sc1C(=O)NCC1CCN(c2cccc(C(=O)O)c2)C1 (centres undefined) | 850 | > 10000 | – | Not Active |
| Cc1ccc(-c2nc(C)c(C(=O)N[C@H]3CCCN(c4cccc(C(=O)O)c4)C3)s2)cc1 | 6 | > 11000 | 3100 | – |
| Cc1nc(-c2ccc(Cl)cc2)sc1C(=O)NCC1CCN(c2cccc(C(=O)O)c2)CC1 | > 3500 | – | – | – |
| COc1ccc(-c2cccc(C(=O)O)c2)cc1CNC(=O)c1ccc(Oc2ccccc2)cc1 | 700 | 5900 | 470 | – |
| Cc1sc(-c2ccc(Cl)cc2)nc1C(=O)N[C@H]1CCCN(c2cccc(C(=O)O)c2)C1 | > 3400 | – | – | – |
| Cc1nc(-c2ccc(Cl)cc2)sc1NC(=O)C1CCCN(c2cccc(C(=O)O)c2)C1 (centres undefined) | 280 | > 13000 | – | Not Active |
| Cc1nc(-c2ccc(Cl)cc2)sc1C(=O)NCC1CN(c2cccc(C(=O)O)c2)CCO1 (centres undefined) | 810 | > 15000 | > 17000 | – |
| O=C(O)c1cccc(N2CCCC(CNC(=O)c3ccc(Oc4ccc(F)cc4)cc3)C2)c1 (centres undefined) | 4400 | – | – | – |
| Cc1nc(-c2ccccc2Cl)sc1C(=O)N[C@H]1CCCN(c2cccc(C(=O)O)c2)C1 | 53 | > 6800 | 1900 | – |
| COc1ccc(-c2nc(C)c(C(=O)N[C@H]3CCCN(c4cccc(C(=O)O)c4)C3)s2)cc1 | 23 | > 11000 | 1800 | – |
| CC[C@@H](Cc1ccc(OC)c(C(=O)NCc2ccc(Oc3ccc(F)cc3)cc2)c1)C(=O)O | 13 | 2500 | 1920 | – |
| Cc1nc(-c2ccc(Cl)cc2)sc1CNC(=O)C1CCCN(c2cccc(C(=O)O)c2)C1 (centres undefined) | > 14000 | – | – | – |
| Cc1nc(-c2ccc(Cl)cc2)sc1CCC1CCCN(c2cccc(C(=O)O)c2)C1 (centres undefined) | 810 | > 6800 | > 6800 | – |
| Cc1nc(-c2ccccc2)sc1C(=O)N[C@H]1CCCN(c2cccc(C(=O)O)c2)C1 | 72 | > 19000 | 7100 | – |
